Assay [1] deals with CD19+ B cells of HIV-1 infected subject. As to the method:
Staining of bulk populations for the sorts. Cells from uninfected or HIV-1 infected patients were obtained by leukopheresis under an IRB-approved protocol and were rested in culture overnight in 10% FBS in RPMI-1640 at 37° C. in 5% CO2. Rested cells were enriched for B cells by depletion of non-B cells using magnetic bead separation (BD Biosciences, Mountain View, Calif.). […] Cells were sorted on a BD FACS Aria (BD Biosciences, Mountain View, Calif.) into CD3^− CD14^− CD16^− CD19^+ tetramer and CD3^− CD14^− CD16^− CD19^+ tetramer^+ pools and also as single cells into a 96-well plates containing RNA extraction buffer.

Assay [2] deals with mAb 13H11 and mAb 2F5 on beads. Particulars: flow cytometry, mAbs 13H11 and 2F5 on beads. The protocol: Antibody-coated beads. Carboxyl-polystyrene beads (3.0-3.4 μm) (Spherotech, Inc., Lake Forest, Ill.) were resuspended in 0.01 M sodium acetate buffer (pH 5.0) and reacted (20° C.×1 hr) with 1-ethyl-3-(3-dimethylaminopropyl) carbodiimide hydrochloride (EDC) (Sigma-Aldrich, Co., St. Louis, Mo.) at a ratio of 3.1 mg beads to 1 mg EDC. Beads were washed with sodium acetate buffer, resuspended in a minimal volume before adding purified mAb in the same buffer (ratio of 16 mg beads to 1 mg mAb), incubated (20° C.×2 hrs), then washed with sodium acetate buffer. Beads were resuspended at 5% in PBS containing 1% bovine serum albumin and 0.02% sodium azide.
(§1) Use of antibody-coated beads and cell lines for tetramer quality control. Tetramer stocks were diluted to twice the desired final concentration in PBS containing 1% BSA. An equal volume of beads or cells at 5×10^5 up to 2×10^6 per sample were mixed with tetramer and incubated (4° C.×30 min). Beads or cells were washed with PBS+1% BSA before being fixed in 2% methanol-free formaldehyde (Polysciences, Inc, Warrington, Pa.) in PBS. Samples were stored at 4° C. prior to being analyzed by flow cytometry (BD LSR II, Becton Dickinson, Mountain View, Calif.). Data were analyzed using FlowJo (Tree Star, Ashland, Oreg.). For tetramer titration 40-80 ng tetramer per 10^6 cells/beads was serially diluted over 8-12 points. Optimal concentrations determined by this method were used for subsequent experiments. For cold competition experiments the incubation step was performed by staining with 10-fold excess unlabeled tetramer (4° C.×30 min) prior to the addition of APC-labeled tetramer. For cell dilution experiments, a mixture of mAb cell lines was made and then 1:10 serial dilutions of cells prepared. For cross competition experiments, mixtures of cells were prepared and then stained singly with anti-IgG reagents or tetramer, or the cells were doubly stained with both reagents either sequentially or concurrently.
A general note: Flow cytometry measures light scatter and fluorescence of single cells or particles in a stream.

For another assay, the system named is 13H11 cells. The following applies: flow cytometry. The protocol:
as §1

In assay [3] the test system is mixture of anti-gp41 MPER 13H11 cells and anti-gp120 V3 F39F cells. As to the method:
as §1

Like-named read-outs stand apart in the source and are kept apart here. Ends that are not written are not given here. * marks the point of attachment. Biotin = O=C1N[C@H]2[C@H](CS[C@H]2CCCCC(=O)*)N1

Regarding “Biotin-GGGQQEKNEQELLELDKWASLWN [gp41 MPER tetramer]”, the “tetramer positive cells of CD19+ B cells” value in assay [1] (before sorting, non-B cell depleted PBMC) was 0.15%; in assay [1] (reanalysis after sorting of tetramer positive gate), 45.3%. For the same substance, in assay [2], the “binding to antibody-coated beads” value is “bound to both the non-neutralizing mAb 13H11 and the neutralizing anti-gp41 mAb 2F5”. Also, the “binding to mAb cell line” value in the assay with 13H11 cells was “bound”. The “cells stained with tetramer” value in assay [3] (mixture diluted tenfold with F39F cells) is recorded as 1.47%; in assay [3] (mixture of 85% F39F cells and 15% 13H11 cells) it was 15.1%. Moreover, the “cells staining over background” value in assay [3] (mixture further diluted tenfold with F39F cells) was 0.12%.
